In patent EP1561465A2, “Methods of use of fluoroquinolone compounds against bacteria” (LG Life Sciences, Ltd., priority 1999, dated 2001):
Values after ≈ are worked out from the molar mass of the structure shown. Where two headings read alike, the source gives them in different places.

Columns and labels:
Format in all cases: cell-based
[1] = system: Shigella spp.; experiment: MIC by NCCLS broth microdilution, 1100 Japanese clinical isolates 1997-1998; details: Shigella spp. (n=34)
[2] = system: Salmonella spp.; experiment: MIC by agar dilution (NCCLS M7-A4), 288 enteropathogenic isolates, eight quinolones; details: for MIC: ciprofloxacin MIC ≥[…], read-out: MIC
[3] = system: Shigella spp.; experiment: as above; details: Shigella spp. (n = 21)
[4] = system: Aeromonas spp.; experiment: MIC by agar dilution (NCCLS M7-A4), 288 enteropathogenic isolates, gemifloxacin and 15 other antimicrobials; details: Aeromonas spp. N= 16
[5] = system: Streptococcus pneumoniae; experiment: MIC by agar dilution (NCCLS), 411 isolates Buenos Aires 1998-99; details: for MIC90 / MIC: Streptococcus pneumoniae; for MIC: Ciprofloxacin-resistant S. pneumoniae, read-out: MIC
[6] = system: Staphylococcus epidermidis; experiment: MIC by NCCLS broth microdilution, 1100 Japanese clinical isolates 1997-1998; details: for MIC50 / MIC90: Staphylococcus epidermidis
[7] = system: Streptococcus pyogenes; experiment: MIC by NCCLS reference broth microdilution, 450 respiratory tract pathogens; details: Streptococcus pyogenes
[8] = system: Enterococcus gallinarum; experiment: MIC by NCCLS broth microdilution, 1100 Japanese clinical isolates 1997-1998; details: Enterococcus gallinarum, GALLINARUM
[9] = system: Streptococcus pneumoniae; experiment: as above
[10] = Staphylococcus epidermidis oxacillin resistant (n=43)
[11] = Staphylococcus epidermidis oxacillin susceptible (n=35)
[12] = Streptococcus pyogenes (n = 100)
[13] = erythromycin resistant C phenotype [MLSB] (n = 20)
[14] = erythromycin resistant I phenotype [MLSB] (n = 20)
[15] = erythromycin resistant M phenotype (n = 20)
[16] = Streptococcus pneumoniae erythromycin resistant (n=34)
[17] = Streptococcus pneumoniae erythromycin susceptible (n=11)

In the case of N[C@@H]1[C@H]2CN(c3nc4c(cc3F)c(=O)c(C(=O)O)cn4-c3ccc(F)cc3F)C[C@@H]12 [Trovafloxacin, trovafloxacin], the MIC50 [1] is reported as at most 8 ng/mL, the MIC90 [1] is reported as 0.032 µg/mL (≈ 0.0769 µM) and the “MIC Range” value [1] is reported as at most 8 to 32 ng/mL. The MIC ([2]; S. hadar (n = 2)) was 0.5 µg/mL (≈ 1.2 µM), the MIC ([2]; S. newport (n = 1)) was 0.5 µg/mL (≈ 1.2 µM) and the MIC ([2]; S. virchow (n = 2)) was 0.25 µg/mL (≈ 0.6 µM). The “% Susceptible” value ([2]; Salmonella spp. (n = 106)) was 100%, the MIC50 ([2]; Salmonella spp. (n = 106)) was 0.06 µg/mL (≈ 0.144 µM) and the MIC90 ([2]; Salmonella spp. (n = 106)) was 0.25 µg/mL (≈ 0.6 µM). The “MIC Range” value ([2]; Salmonella spp. (n = 106)) was at most 0.015 to 1 µg/mL, the MIC ([2]; Salmonella, S. tshiongwe (n = 1)) was 1 µg/mL (≈ 2.4 µM) and the “% Susceptible” value [3] was 100%. For the same compound, the MIC50 [3] was at most 0.015 µg/mL, the MIC90 [3] was at most 0.015 µg/mL and the “MIC Range” value [3] was at most 0.015 µg/mL. The “MIC (mg/L) Range” value [4] was at most 0.015 to 0.25 mg/L, the MIC ([4]; read-out: MIC (mg/L) 50%) was at most 0.015 mg/L and the MIC ([4]; read-out: MIC (mg/L) 90%) was 0.03 mg/L (≈ 0.0721 µM). The MIC90 [5] was 0.125 µg/mL (≈ 0.3 µM), the “MIC Range” value ([5]; Streptococcus pneumoniae (n = 90)) was 0.016 to 1 µg/mL and the MIC ([5]; Strain 1) was 0.25 µg/mL (≈ 0.6 µM). It also gave an MIC ([5]; Strain 2) of 0.025 µg/mL (≈ 0.06 µM), an MIC ([5]; Strain 3) of 1 µg/mL (≈ 2.4 µM) and an MIC ([5]; Strain 4) of 1 µg/mL (≈ 2.4 µM). It also gave an MIC90 ([5]; S. pneumoniae, Penicillin intermediate (n = 17), read-out: MIC90) of 0.25 µg/mL (≈ 0.6 µM), an MIC90 ([5]; S. pneumoniae, Penicillin susceptible (n = 69), read-out: MIC90) of 0.25 µg/mL (≈ 0.6 µM) and an MIC90 ([5]; Streptococcus pneumoniae (n = 90), read-out: MIC90) of 0.25 µg/mL (≈ 0.6 µM). The “MIC Range” value [6, 10] was 0.032 to 8 µg/mL, the “MIC Range” value [6, 11] was at most 0.008 to 2 µg/mL and the MIC50 [6, 10] was 1 µg/mL (≈ 2.4 µM). The MIC90 [6, 10] was 2 µg/mL (≈ 4.8 µM), the MIC50 [6, 11] was 0.032 µg/mL (≈ 0.0769 µM) and the MIC90 [6, 11] was 1 µg/mL (≈ 2.4 µM). It also gave an MIC [7, 12] of 0.03 to 1 µg/mL (≈ 0.0721 to 2.4 µM), an MIC50 [7, 12] of 0.12 µg/mL (≈ 0.288 µM) and an MIC90 [7, 12] of 0.25 µg/mL (≈ 0.6 µM). The MIC [7, 13] was 0.03 to 0.12 µg/mL (≈ 0.0721 to 0.288 µM), the MIC50 [7, 13] was 0.06 µg/mL (≈ 0.144 µM) and the MIC90 [7, 13] was 0.12 µg/mL (≈ 0.288 µM). For the same compound, the MIC [7, 14] was 0.06 to 0.5 µg/mL (≈ 0.144 to 1.2 µM), the MIC50 [7, 14] was 0.12 µg/mL (≈ 0.288 µM) and the MIC90 [7, 14] was 0.5 µg/mL (≈ 1.2 µM). It also gave an MIC [7, 15] of 0.06 to 0.5 µg/mL (≈ 0.144 to 1.2 µM), an MIC50 [7, 15] of 0.12 µg/mL (≈ 0.288 µM) and an MIC90 [7, 15] of 0.12 µg/mL (≈ 0.288 µM). The MIC ([7]; fully susceptible (n = 20)) was 0.06 to 1 µg/mL (≈ 0.144 to 2.4 µM), the MIC50 ([7]; fully susceptible (n = 20)) was 0.12 µg/mL (≈ 0.288 µM) and the MIC90 ([7]; fully susceptible (n = 20)) was 0.25 µg/mL (≈ 0.6 µM). The MIC ([7]; multi-drug resistant (n = 20)) was 0.12 to 0.25 µg/mL (≈ 0.288 to 0.6 µM), the MIC50 ([7]; multi-drug resistant (n = 20)) was 0.12 µg/mL (≈ 0.288 µM) and the MIC90 ([7]; multi-drug resistant (n = 20)) was 0.25 µg/mL (≈ 0.6 µM). It also gave an MIC [8] of 0.125 µg/mL (≈ 0.3 µM), an MIC ([8]; Enterococcus gallinarum (vanC1), strain TMS2, read-out: MIC) of 0.25 µg/mL (≈ 0.6 µM) and an MIC ([8]; Enterococcus gallinarum (vanC1), strain TMS3, read-out: MIC) of 0.25 µg/mL (≈ 0.6 µM). The MIC ([8]; Enterococcus gallinarum (vanC1), strain TMS4, read-out: MIC) was 0.063 µg/mL (≈ 0.151 µM), the MIC50 ([9]; Streptococcus pneumoniae) was 0.125 µg/mL (≈ 0.3 µM) and the MIC90 ([9]; Streptococcus pneumoniae) was 0.125 µg/mL (≈ 0.3 µM). The “MIC Range” value ([9]; Streptococcus pneumoniae amoxicillin resistant (n=40)) was 0.063 to 1 µg/mL, the “MIC Range” value ([9]; Streptococcus pneumoniae amoxicillin susceptible (n=35)) was 0.063 to 1 µg/mL and the MIC90 [9, 16] was 0.125 µg/mL (≈ 0.3 µM). For the same compound, the “MIC Range” value [9, 16] was 0.063 to 1 µg/mL, the MIC90 [9, 17] was 0.125 µg/mL (≈ 0.3 µM) and the “MIC Range” value [9, 17] was 0.063 to 0.125 µg/mL. It also gave an MIC50 ([9]; Streptococcus pneumoniae, Streptococcus pneumoniae amoxicillin resistant (n=40), read-out: MIC50) of 0.063 µg/mL (≈ 0.151 µM) and an MIC50 ([9]; Streptococcus pneumoniae, Streptococcus pneumoniae amoxicillin susceptible (n=35), read-out: MIC50) of 0.063 µg/mL (≈ 0.151 µM).
